Results: patent US20230203480A1, “LIPID NANOPARTICLE FORMULATIONS FOR CRISPR/CAS COMPONENTS” (Intellia Therapeutics, Inc., priority 2016, published 2023)

Test: Pharmacokinetic profile of Lipid A in liver and plasma (LC/MS)
Format: in vivo, mouse
Details: mice, after LNP administration
Method: Three different guide sequences were separately formulated, according to Example 1, and injected into mice (n=3) to determine the pharmacokinetic profile of Lipid A. Levels of Lipid A in mouse liver and plasma were measured by LC/MS. […] Tmax in liver was achieved within 30 minutes of administration, whereas T112 in plasma and liver were achieved within approximately 5-6 hours of LNP administration.

Tmax (CD-1, mouse, liver, intravenous): ≤ 30 min
T112 in liver: 5 to 6 h
T112 in plasma: 5 to 6 h
Compound: CCCCC/C=C\C/C=C\CCCCCCCC(=O)OCC(COC(=O)CCC(OCCCCCCCC)OCCCCCCCC)COC(=O)OCCCN(CC)CC (stereo not drawn) [Lipid A, (9Z,12Z)-3-((4,4-bis(octyloxy)butanoyl)oxy)-2-((((3-(diethylamino)propoxy)carbonyl)oxy)methyl)propyl octadeca-9,12-dienoate]
